Laboratory results reported in patent US12281122B1, “PI3K inhibitors” (Cogent Biosciences, Inc., priority 2023, dated 2025).
pIC50: −log10 of the molar value.

What was measured:
[1] = system: T47D (PI3Kα-H1047R) cell line; assay: HTRF phospho-AKT(S473) cell assay in T47D cells; type: cell-based, human; conditions: Homo sapiens; HTRF phospho-AKT(S473), T47D (PI3Kα-H1047R) cells, 2 hours compound incubation
Method in brief: (§1)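 HTRF read-out of phospho-AKT(S473) in lysates gave IC50 values after 2 h compound exposure at 37° C. Dose series was 12 points at 1:3, topping at 5 μM for T47D and 10 μM for SKBR3. Only SKBR3 received 70 ng/ml PDGF-BB during the last 15 minutes.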

[2] = system: SKBR3 (PI3Kα-Wild Type) cell line; assay: HTRF phospho-AKT(S473) cell assay in SKBR3 cells; type: cell-based, human; conditions: Homo sapiens, SK-BR-3; HTRF phospho-AKT(S473), SKBR3 (PI3Kα-Wild Type) cells, 2 hours compound incubation, PDGF-BB stimulated
Method in brief: as §1

Compound	pIC50 [1]	pIC50 [2]
[2H]C([2H])([2H])n1ccc([C@H]2[C@@H]3CN(c4nc5c([C@@H](C)Nc6ccc(Cl)nc6C(=O)NS(C)(=O)=O)cc(C)cc5c(=O)n4C4CC4)C[C@@H]32)n1 [Compound 734, 6-chloro-3-(((R)-1-(3-cyclopropyl-6-methyl-2-((1R,5S,6R)-6-(1-(methyl-d3)-1H-pyrazol-3-yl)-3-azabicyclo[3.1.0]hexan-3-yl)-4-oxo-3,4-dihydroquinazolin-8-yl)ethyl)amino)-N-(methylsulfonyl) picolinamide]	6.30 to 6.60	5.30 to 6.00
Cc1cc([C@@H](C)Nc2ccc(Cl)nc2C(=O)NS(C)(=O)=O)c2nc(N3Cc4cn(CC(F)(F)F)nc4C3)n(C3CC3)c(=O)c2c1 [Compound 735, (R)-6-chloro-3-((1-(3-cyclopropyl-6-methyl-4-oxo-2-(2-(2,2,2-trifluoroethyl)-2,6-dihydropyrrolo[3,4-c]pyrazol-5(4H)-yl)-3,4-dihydroquinazolin-8-yl)ethyl)amino)-N-(methylsulfonyl) picolinamide]	6.30 to 6.60	5.30 to 6.00
Cc1cc([C@@H](C)Nc2ccc(Cl)nc2C(=O)NS(C)(=O)=O)c2nc(N3Cc4cnn(CC(F)(F)F)c4C3)n(C3CC3)c(=O)c2c1 [Compound 736, (R)-6-chloro-3-((1-(3-cyclopropyl-6-methyl-4-oxo-2-(1-(2,2,2-trifluoroethyl)-4,6-dihydropyrrolo[3,4-c]pyrazol-5(1H)-yl)-3,4-dihydroquinazolin-8-yl)ethyl)amino)-N-(methylsulfonyl) picolinamide]	6.00 to 6.30	≤ 5.30
Cc1cc([C@@H](C)Nc2ccc(Cl)nc2C(=O)NS(C)(=O)=O)c2nc(N3CC[C@H](Nc4ncc(F)cn4)C3)n(C)c(=O)c2c1 [Compound 737, 6-chloro-3-(((R)-1-(2-((S)-3-((5-fluoropyrimidin-2-yl)amino)pyrrolidin-1-yl)-3,6-dimethyl-4-oxo-3,4-dihydroquinazolin-8-yl)ethyl)amino)-N-(methylsulfonyl) picolinamide]	6.30 to 6.60	≤ 5.30
Cc1cc([C@@H](C)Nc2ccc(Cl)nc2C(=O)NS(C)(=O)=O)c2nc(N3CC[C@H](Nc4ncc(Cl)cn4)C3)n(C)c(=O)c2c1 [Compound 738, 6-chloro-3-(((R)-1-(2-((S)-3-((5-chloropyrimidin-2-yl)amino)pyrrolidin-1-yl)-3,6-dimethyl-4-oxo-3,4-dihydroquinazolin-8-yl)ethyl)amino)-N-(methylsulfonyl) picolinamide]	6.30 to 6.60	≤ 5.30
Cc1cc([C@@H](C)Nc2ccc(Cl)nc2C(=O)NS(C)(=O)=O)c2nc(N3CC[C@H](N(C)c4ncc(F)cn4)C3)n(C)c(=O)c2c1 [Compound 739, 6-chloro-3-(((R)-1-(2-((S)-3-((5-fluoropyrimidin-2-yl)(methyl)amino)pyrrolidin-1-yl)-3,6-dimethyl-4-oxo-3,4-dihydroquinazolin-8-yl)ethyl)amino)-N-(methylsulfonyl) picolinamide]	6.30 to 6.60	≤ 5.30
Cc1cc([C@@H](C)Nc2ccc(Cl)nc2C(=O)NS(C)(=O)=O)c2nc(N3CC[C@H](N(C)c4ncc(Cl)cn4)C3)n(C)c(=O)c2c1 [Compound 740, 6-chloro-3-(((R)-1-(2-((S)-3-((5-chloropyrimidin-2-yl)(methyl)amino)pyrrolidin-1-yl)-3,6-dimethyl-4-oxo-3,4-dihydroquinazolin-8-yl)ethyl)amino)-N-(methylsulfonyl) picolinamide]	6.30 to 6.60	≤ 5.30
Cc1cc([C@@H](C)Nc2ccc(Cl)nc2C(=O)NS(C)(=O)=O)c2nc(N3C[C@@H]4[C@H](C3)[C@H]4n3cc(C(F)(F)F)cn3)n(C)c(=O)c2c1 [Compound 741, 6-chloro-3-(((R)-1-(3,6-dimethyl-4-oxo-2-((1R,5S,6S)-6-(4-(trifluoromethyl)-1H-pyrazol-1-yl)-3-azabicyclo[3.1.0]hexan-3-yl)-3,4-dihydroquinazolin-8-yl)ethyl)amino)-N-(methylsulfonyl) picolinamide]	6.00 to 6.30	≤ 5.30
Cc1cc([C@@H](C)Nc2ccc(Cl)nc2C(=O)NS(C)(=O)=O)c2nc(N3C[C@@H]4[C@H](C3)[C@H]4c3nc(C)no3)n(C)c(=O)c2c1 [Compound 742, 6-chloro-3-(((R)-1-(3,6-dimethyl-2-((1R,5S,6R)-6-(3-methyl-1,2,4-oxadiazol-5-yl)-3-azabicyclo[3.1.0]hexan-3-yl)-4-oxo-3,4-dihydroquinazolin-8-yl)ethyl)amino)-N-(methylsulfonyl) picolinamide]	6.30 to 6.60	5.30 to 6.00
Cc1cc([C@@H](C)Nc2ccc(Cl)nc2C(=O)NS(C)(=O)=O)c2nc(N3CCC(c4cnn(C(C)C)n4)CC3)n(C)c(=O)c2c1 [Compound 744, (R)-6-chloro-3-((1-(2-(4-(2-isopropyl-2H-1,2,3-triazol-4-yl)piperidin-1-yl)-3,6-dimethyl-4-oxo-3,4-dihydroquinazolin-8-yl)ethyl)amino)-N-(methylsulfonyl) picolinamide]	6.30 to 6.60	≤ 5.30
Cc1cc([C@@H](C)Nc2ccc(Cl)nc2C(=O)NS(C)(=O)=O)c2nc(N3C[C@@H]4[C@H](C3)[C@H]4c3ccnc(N(C)C)c3)n(C)c(=O)c2c1 [Compound 745, 6-chloro-3-(((R)-1-(2-((1R,5S,6S)-6-(2-(dimethylamino)pyridin-4-yl)-3-azabicyclo[3.1.0]hexan-3-yl)-3,6-dimethyl-4-oxo-3,4-dihydroquinazolin-8-yl)ethyl)amino)-N-(methylsulfonyl) picolinamide]	6.30 to 6.60	≤ 5.30
[2H]C([2H])([2H])n1ccc(C2CCN(c3nc4c([C@@H](C)Nc5ccc(Cl)nc5C(=O)NS(C)(=O)=O)cc(C)cc4c(=O)n3C)CC2)n1 [Compound 746, (R)-6-chloro-3-((1-(3,6-dimethyl-2-(4-(1-(methyl-d3)-1H-pyrazol-3-yl)piperidin-1-yl)-4-oxo-3,4-dihydroquinazolin-8-yl)ethyl)amino)-N-(methylsulfonyl) picolinamide]	> 6.60	≤ 5.30
[2H]C([2H])([2H])n1nccc1C1CCN(c2nc3c([C@@H](C)Nc4ccc(Cl)nc4C(=O)NS(C)(=O)=O)cc(C)cc3c(=O)n2C)CC1 [Compound 747, (R)-6-chloro-3-((1-(3,6-dimethyl-2-(4-(1-(methyl-d3)-1H-pyrazol-5-yl)piperidin-1-yl)-4-oxo-3,4-dihydroquinazolin-8-yl)ethyl)amino)-N-(methylsulfonyl) picolinamide]	> 6.60	5.30 to 6.00
Cc1ccn(C2CCN(c3nc4c([C@@H](C)Nc5ccc(Cl)nc5C(=O)NS(C)(=O)=O)cc(C)cc4c(=O)n3C)CC2)c(=O)c1 [Compound 753, (R)-6-chloro-3-((1-(3,6-dimethyl-2-(4-(4-methyl-2-oxopyridin-1(2H)-yl)piperidin-1-yl)-4-oxo-3,4-dihydroquinazolin-8-yl)ethyl)amino)-N-(methylsulfonyl) picolinamide]	> 6.60	5.30 to 6.00
Cc1ccn([C@H]2[C@@H]3CN(c4nc5c([C@@H](C)Nc6ccc(Cl)nc6C(=O)NS(C)(=O)=O)cc(C)cc5c(=O)n4C)C[C@@H]32)c(=O)c1 [Compound 754, 6-chloro-3-(((R)-1-(3,6-dimethyl-2-((1R,5S,6S)-6-(4-methyl-2-oxopyridin-1(2H)-yl)-3-azabicyclo[3.1.0]hexan-3-yl)-4-oxo-3,4-dihydroquinazolin-8-yl)ethyl)amino)-N-(methylsulfonyl) picolinamide]	> 6.60	≤ 5.30
Cc1cc([C@@H](C)Nc2ccc(Cl)nc2C(=O)NS(C)(=O)=O)c2nc(N3C[C@@H]4[C@H](C3)[C@H]4n3ccccc3=O)n(C)c(=O)c2c1 [Compound 755, 6-chloro-3-(((R)-1-(3,6-dimethyl-4-oxo-2-((1R,5S,6S)-6-(2-oxopyridin-1(2H)-yl)-3-azabicyclo[3.1.0]hexan-3-yl)-3,4-dihydroquinazolin-8-yl)ethyl)amino)-N-(methylsulfonyl) picolinamide]	6.30 to 6.60	5.30 to 6.00
Cc1cc([C@@H](C)Nc2ccc(Cl)nc2C(=O)NS(=O)(=O)c2ccc(N(C)C)nc2)c2nc(N3Cc4ccc(F)cc4C3)n(C)c(=O)c2c1 [Compound 757, (R)-6-chloro-N-((6-(dimethylamino)pyridin-3-yl)sulfonyl)-3-((1-(2-(5-fluoroisoindolin-2-yl)-3,6-dimethyl-4-oxo-3,4-dihydroquinazolin-8-yl)ethyl)amino) picolinamide]	6.30 to 6.60	≤ 5.30
CCn1cc(F)c(C2CCN(c3nc4c([C@@H](C)Nc5ccc(Cl)nc5C(=O)NS(C)(=O)=O)cc(C)cc4c(=O)n3C)CC2)n1 [Compound 758, (R)-6-chloro-3-((1-(2-(4-(1-ethyl-4-fluoro-1H-pyrazol-3-yl)piperidin-1-yl)-3,6-dimethyl-4-oxo-3,4-dihydroquinazolin-8-yl)ethyl)amino)-N-(methylsulfonyl) picolinamide]	6.30 to 6.60	≤ 5.30
Cc1cc([C@@H](C)Nc2ccc(Cl)nc2C(=O)NS(C)(=O)=O)c2nc(N3CCC(c4nn(C5COC5)cc4F)CC3)n(C)c(=O)c2c1 [Compound 759, (R)-6-chloro-3-((1-(2-(4-(4-fluoro-1-(oxetan-3-yl)-1H-pyrazol-3-yl)piperidin-1-yl)-3,6-dimethyl-4-oxo-3,4-dihydroquinazolin-8-yl)ethyl)amino)-N-(methylsulfonyl) picolinamide]	6.30 to 6.60	5.30 to 6.00
